As usually defined, the Ki is the dissociation constant of the complex between target and ligand, obtained from inhibition or displacement. For orientation: melting point means the temperature of the solid-liquid transition.

The source of these data is US8202872B2, “Pyrazole derivatives as sigma receptor inhibitors” (Laboratorios del Dr. Esteve, S.A., priority 2006, dated 2012).

Series [1] addresses T1, σ1-receptor (Cavia porcellus, UniProt Q60492).
T1 construct: guinea pig brains were homogenized; from tissue; host or cells: guinea pig brain membranes
The experiment in a line: Sigma-1 receptor binding assay, [3H](+)-pentazocine, brain membranes. Particulars: guinea pig brain membranes; for Ki: Sigma-1 receptor, [3H](+)-pentazocine; for % Binding σ1 10^−7M: compound at 10^−7 M; for % Binding σ1 10^−7M / % Binding σ1 10^−8M: [3H](+)-pentazocine 0.5 nM; for % Binding σ1 10^−8M: compound at 10^−8 M. As for the experimental part: Brain membrane preparation and binding assays for the σ1-receptor were performed as described (DeHaven-Hudkins et al., 1992) with some modifications. In brief, guinea pig brains were homogenized in 10 vols. (w/v) of Tris-HCl 50 mM 0.32 M sucrose, pH 7.4, with a Kinematica Polytron PT 3000 at 15000 r.p.m. for 30 s. The homogenate was centrifuged at 1000 g for 10 min at 4° C. and the supernatants collected and centrifuged again at 48000 g for 15 min at 4° C. The pellet was resuspended in 10 volumes of Tris-HCl buffer (50 mM, pH 7.4), incubated at 37° C. for 30 min, and centrifuged at 48000 g for 20 min at 4° C. Following this, the pellet was resuspended in fresh Tris-HCl buffer (50 mM, pH 7.4) and stored on ice until use.
Each assay tube contained 10 μL of [^3H](+)-pentazocine (final concentration of 0.5 nM), 900 μL of the tissue suspension to a final assay volume of 1 mL and a final tissue concentration of approximately 30 mg tissue net weight/mL. Non-specific binding was defined by addition of a final concentration of 1 μM haloperidol. All tubes were incubated at 37° C. for 150 min before termination of the reaction by rapid filtration over Schleicher & Schuell GF 3362 glass fibre filters [previously soaked in a solution of 0.5% polyethylenimine for at least 1 h]. Filters were then washed with four times with 4 mL of cold Tris-HCl buffer (50 mM, pH 7.4). Following addition of scintillation cocktail, the samples were allowed to equilibrate overnight. The amount of bound radioactivity was determined by liquid scintillation spectrometry using a Wallac Winspectral 1414 liquid scintillation counter. Protein concentrations were determined by the method of Lowry et al. (1951).

For series [2], the system named is capsaicin-induced allodynia. Nature of the series: Von Frey filaments in a model of capsaicin-induced allodynia. Further details: dose or concentration left out as unconfirmed. Particulars: mice; capsaicin injected into paw; mechanical stimulus (von Frey). Format: in vivo. As for the experimental part:
In-Vivo-Experiments Using Von Frey Filaments in a Model of Capsaicine—Induced Allodynia:
This model is described in detail in the experimental part of WO 2006/010587 A1, examples 1 and 2, the description being included here by reference. Capsaicin is thereby injected into experimental animals to produce acute pain followed by allodynia.
Briefly after habituation mice were first treated with the test-compound (or not in controls). Then capsaicin (1% DMSO) is injected into their paw resulting in developing pain in the effected paw. The effected paw is then treated with a mechanical stimulus and the latency time before the paw is withdrawn is measured.

Structures can show the parent of a compound that is named as a salt.

T1 sequence (Q60492 whole entry): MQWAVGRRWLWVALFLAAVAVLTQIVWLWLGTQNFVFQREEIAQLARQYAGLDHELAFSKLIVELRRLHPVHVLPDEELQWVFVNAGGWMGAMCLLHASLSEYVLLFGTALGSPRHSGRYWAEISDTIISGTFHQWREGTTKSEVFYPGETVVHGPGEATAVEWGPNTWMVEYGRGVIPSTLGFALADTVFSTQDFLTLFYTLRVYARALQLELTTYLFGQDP

In series [1], `CC(=O)C1CCN(CCOc2ccn(-c3ccc(Cl)cc3Cl)n2)CC1` [Example 7, 1-(1-[2-{1-(2.4-Dichlo-rophenyl)-1H-pyrazol-3-yloxy}ethyl]piperi-din-4-yl)ethanone oxalate] registered a Ki of 1.5 nM.
Compound `Cc1cc(OCCN2CCC(n3cnc4cccnc43)CC2)nn1-c1ccc(Cl)c(Cl)c1` [Example 1, 3-{1-[2-(1-(3,4-Dichlorophenyl)-5-methyl-1H-pyrazol-3-yloxy)ethyl]piperidin-4-yl}-3H-imidazo[4,5-b]pyridine] displayed a melting point of 104 to 107 °C. In series [1], the “% Binding σ1 10^−7M” value turned out to be 94.4% and the “% Binding σ1 10^−8M” value is 49.4%.
In the case of `CC(=O)N1CCN(CCCCOc2cc(C)n(-c3ccc(Cl)c(Cl)c3)n2)CC1` [Example 13, 1-(4-{4-[1-(3,4-Dichloro-phenyl)-5-methyl-1H-pyrazol-3-yloxy]-butyl}-piperazin-1-yl)-ethanone], the melting point lay in the range of 147 to 150 °C.
`CC(=O)C1CCN(CCOc2ccn(-c3ccc(Cl)cc3Cl)n2)CC1.O=C(O)C(=O)O` (hydrate or solvate) [Example 7, 1-(1-[2-{1-(2.4-Dichlo-rophenyl)-1H-pyrazol-3-yloxy}ethyl]piperi-din-4-yl)ethanone oxalate] returned a melting point of 137 to 140 °C.
Consider `CCOC(=O)N1CCN(CCOc2cc(C)n(-c3ccc(Cl)c(Cl)c3)n2)CC1` [Example 3, Ethyl 4-{2-[1-(3,4-dichlorophenyl)-5-methyl-1H-pyrazol-3-yloxy]ethyl}piperazine carboxylate], for which, in series [1], the “% Binding σ1 10^−7M” value is 99.5% and the “% Binding σ1 10^−8M” value was determined as 58.4%.
For `CC(=O)N1CCN(CCCCOc2nn(-c3ccc(Cl)c(Cl)c3)c(C)c2C)CC1.O=C(O)C(=O)O` [Example 10, 1-(4-(4-(1-(3,4-Dichlo-rophenyl)-4,5-dimethyl-1H-pyrazol-3-yloxy)butyl)piperazin-1-yl)ethanone oxalate], the melting point lay in the range of 186 to 188 °C.
As to `CC(=O)N1CCN(CCOc2cc(C)n(-c3ccc(Cl)c(Cl)c3)n2)CC1` [Example 4, 1-(4-(2-(1-(3,4-dichlorophenyl)-5-methyl-1H-pyrazol-3-yloxy)ethyl)piperazin-1-yl)ethanone], in series [1], the “% Binding σ1 10^−7M” value is 99.4% and the “% Binding σ1 10^−8M” value is on record as 82.5%.
Take `Cc1cc(OCCN2CCC(N)C2)nn1-c1ccc(Cl)c(Cl)c1` (stereo not drawn) [Example 2, 1-{2-[1-(3,4-Dichlorophenyl)-5-methyl-1H-pyrazol-3-yloxy]ethyl}pyrrolidin-3-amine]: in series [1], the “% Binding σ1 10^−7M” value came to 90.7% and the “% Binding σ1 10^−8M” value was found to be 53.2%.
In turn, `CC(=O)C1CCN(CCOc2ccn(-c3ccc(Cl)cc3)n2)CC1.O=C(O)C(=O)O` [Example 8, 1-(1-(2-(1-(4-Chloro-phenyl)-1H-pyrazol-3-yloxy)ethyl)piperidin-4-yl)ethanone oxalate] came in with a melting point of 150 to 153 °C. In series [1], the Ki came to 1.3 nM.
The compound `CC(=O)N1CCN(CCOc2nn(-c3ccc(Cl)c(Cl)c3)c(C)c2C)CC1.O=C(O)C(=O)O` (hydrate or solvate) [Example 12, 1-(4-(2-(1-(3,4-Dichlo-rophenyl)-4,5-dimethyl-1H-pyrazol-3-yloxy)ethyl)piperazin-1-yl)ethanone oxalate] registered a melting point of 180 to 184 °C.
Consider `CC(=O)C1CCN(CCOc2cc(C)n(-c3ccc(Cl)c(Cl)c3)n2)CC1.O=C(O)C(=O)O` [Example 9, 1-(1-(2-(1-(3,4-Dichlo-rophenyl)-5-methyl-1H-pyrazol-3-yloxy)ethyl)piperidin-4-yl)ethanone oxalate], for which the melting point was 158 to 165 °C. In series [1], this compound showed a Ki of 8.3 nM.
Compound `CC(=O)C1CCN(CCOc2ccn(-c3ccc(Cl)c(Cl)c3)n2)CC1.O=C(O)C(=O)O` [Example 5, 1-{1-[2-(1-(3,4-Dichlorophenyl)-1H-pyrazol-3-yloxy)ethyl]piperidin-4-yl}ethanone oxalate] yielded a melting point of 98 to 100 °C. The Ki in series [1] came out at 1.3 ± 0.4 nM.
Take `CC(=O)N1CCN(CCOc2ccn(-c3ccc(Cl)c(Cl)c3)n2)CC1.O=C(O)C(=O)O` [Example 6, 1-{4-[2-(1-(3,4-Dichlo-rophenyl)-1H-pyrazol-3-yloxy)ethyl]pipera-zin-1-yl}ethanone oxalate]: the melting point was 206 to 210 °C. Besides, the affinity in series [1], expressed as Ki, was 4.2 nM. In addition, the analgesia in series [2] came out at 77%.
In turn, `CC(=O)N1CCN(CCOc2ccn(-c3ccc(Cl)cc3Cl)n2)CC1.O=C(O)C(=O)O` [Example 11, 1-(4-(2-(1-(2,4-Dichlo-rophenyl)-1H-pyrazol-3-yloxy)ethyl)piperazin-1-yl)ethanone oxalate] displayed a melting point of 156 to 158 °C.
